Measured values taken from US20260285850A1, “SUBSTITUTED OXAZOLIDINONES AND IMIDAZOLINONES AS HERBICIDES” (FMC CORPORATION, priority 2023, published 2026).

Columns and labels:
Format in all cases: in vivo
[1] = tested on: blackgrass (Alopecurus myosuroides); assay: Test A postemergence application, visual injury rating 0-100
Summary of the method: (§1)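 Rating: visual, day 10, untreated plants as reference, 0 no effect to 100 full control. Plants were in loam-sand and were treated either preemergence via directed soil spray or postemergence at the one- to two-leaf stage.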

[2] = tested on: oat, wild (wild oat, Avena fatua); assay: as above
Summary of the method: as §1

soybean (Glycine max) [3] = assay: as above
Summary of the method: as §1

[4] = tested on: horseweed (Erigeron canadensis); assay: as above
Summary of the method: as §1

kochia (Bassia scoparia) [5] = assay: as above
Summary of the method: as §1

[6] = tested on: palmer (palmer amaranth, palmer pigweed, Amaranthus palmeri); assay: as above
Summary of the method: as §1

[7] = tested on: barnyardgrass (Echinochloa crus-galli); assay: as above
Summary of the method: as §1

[8] = tested on: wheat (Triticum aestivum); assay: as above
Summary of the method: as §1

[9] = tested on: green foxtail (Setaria viridis); assay: as above
Summary of the method: as §1

[10] = tested on: ryegrass, Italian (italian ryegrass, Lolium multiflorum); assay: as above
Summary of the method: as §1

[11] = tested on: ragweed (common ragweed, Ambrosia artemisiifolia); assay: as above
Summary of the method: as §1

corn (Zea mays) [12] = assay: as above
Summary of the method: as §1

[13] = tested on: sedge, umbrella (small-flower umbrella sedge, Cyperus difformis); assay: Test B flooded paddy test, visual plant response rating 0-100; settings: 250 g ai/ha, Flood, applied to paddy water, evaluated after 13 days
Summary of the method: (§2)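 Greenhouse, 13 d. Seedlings at 2-leaf stage, pots flooded to 3 cm, compound delivered into floodwater, water level held constant. Evaluated visually relative to controls.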

[14] = tested on: ducksalad (Heteranthera limosa); assay: as above; settings: 250 g ai/ha, Flood, applied to paddy water, evaluated after 13 days
Summary of the method: as §2

rice (Oryza sativa) = assay: as above; settings: 250 g ai/ha, Flood, applied to paddy water, evaluated after 13 days
Summary of the method: as §2

[15] = tested on: barnyardgrass (Echinochloa crusgalli); assay: as above; settings: 250 g ai/ha, Flood, applied to paddy water, evaluated after 13 days
Summary of the method: as §2

[16] = tested on: blackgrass (Alopecurus myosuroides); assay: Test A preemergence soil spray, visual injury rating 0-100; settings: 10 days
Summary of the method: as §1

[17] = tested on: oat, wild (wild oat, Avena fatua); assay: as above; settings: 10 days
Summary of the method: as §1

soybean (Glycine max) [18] = assay: as above; settings: 10 days
Summary of the method: as §1

kochia (Bassia scoparia) [19] = assay: as above; settings: 10 days
Summary of the method: as §1

[20] = tested on: palmer (palmer amaranth, palmer pigweed, Amaranthus palmeri); assay: as above; settings: 10 days
Summary of the method: as §1

[21] = tested on: barnyardgrass (Echinochloa crus-galli); assay: as above; settings: 10 days
Summary of the method: as §1

[22] = tested on: wheat (Triticum aestivum); assay: as above; settings: 10 days
Summary of the method: as §1

[23] = tested on: green foxtail (Setaria viridis); assay: as above; settings: 10 days
Summary of the method: as §1

[24] = tested on: ryegrass, Italian (italian ryegrass, Lolium multiflorum); assay: as above; settings: 10 days
Summary of the method: as §1

[25] = tested on: ragweed (common ragweed, Ambrosia artemisiifolia); assay: as above; settings: 10 days
Summary of the method: as §1

corn (Zea mays) [26] = assay: as above; settings: 10 days
Summary of the method: as §1

[27] = 62 g ai/ha, postemergence, 10 days, 0 = no effect, 100 = complete control
[28] = Postemergence, 16 g ai/ha, greenhouse 10 days, 0 no effect, 100 complete control
[29] = 62 g ai/ha, 0 = no effect, 100 = complete control

CCOC(=O)C1=CCC(NC(=O)C2(C)CN(c3cc(Cl)cc(Cl)c3)C(=O)O2)C1 (centres unmarked) [Compound 114]
Blackgrass plant response rating (0-100) [1, 27]: 80
Blackgrass plant response rating (0 to 100 scale) [1, 28]: 50
Oat, Wild plant response rating (0-100) [2, 27]: 40
Oat, Wild plant response rating (0 to 100 scale) [2, 28]: 30
Soybean plant response rating (0-100) (soybean (Glycine max) [3]; [27]): 70
Soybean plant response rating (0 to 100 scale) (soybean (Glycine max) [3]; [28]): 50
Horseweed plant response rating (0-100) [4, 27]: 70
Horseweed plant response rating (0 to 100 scale) [4, 28]: 20
Kochia plant response rating (0-100) (kochia (Bassia scoparia) [5]; [27]): 90
Kochia plant response rating (0 to 100 scale) (kochia (Bassia scoparia) [5]; [28]): 80
Pigweed, Palmer plant response rating (0-100) [6, 27]: 90
Pigweed, Palmer plant response rating (0 to 100 scale) [6, 28]: 90
Barnyardgrass plant response rating (0-100) [7, 27]: 100
Barnyardgrass plant response rating (0 to 100 scale) [7, 28]: 100
Wheat plant response rating (0-100) [8, 27]: 90
Wheat plant response rating (0 to 100 scale) [8, 28]: 80
Foxtail, Green plant response rating (0-100) [9, 27]: 90
Foxtail, Green plant response rating (0 to 100 scale) [9, 28]: 80
Ryegrass, Italian plant response rating (0-100) [10, 27]: 80
Ryegrass, Italian plant response rating (0 to 100 scale) [10, 28]: 50
Ragweed plant response rating (0-100) [11, 27]: 50
Ragweed plant response rating (0 to 100 scale) [11, 28]: 10
Corn plant response rating (0-100) (corn (Zea mays) [12]; [27]): 100
Corn plant response rating (0 to 100 scale) (corn (Zea mays) [12]; [28]): 100
Plant response rating, Sedge, Umbrella (0 to 100 scale, 0 is no effect and 100 is complete control) [13]: 98
Plant response rating, Ducksalad (0 to 100 scale, 0 is no effect and 100 is complete control) [14]: 80
Plant response rating, Rice (0 to 100 scale, 0 is no effect and 100 is complete control) (rice (Oryza sativa)): 55
Plant response rating, Barnyardgrass (0 to 100 scale, 0 is no effect and 100 is complete control) [15]: 90
Blackgrass plant response rating ([16]; 16 g ai/ha, 0 to 100 scale): 0
Blackgrass plant response rating (0-100) [16, 29]: 20
Oat, Wild plant response rating ([17]; 16 g ai/ha, 0 to 100 scale): 0
Oat, Wild plant response rating (0-100) [17, 29]: 20
Soybean plant response rating (soybean (Glycine max) [18]; 16 g ai/ha, 0 to 100 scale): 0
Soybean plant response rating (0-100) (soybean (Glycine max) [18]; [29]): 10
Kochia plant response rating (kochia (Bassia scoparia) [19]; 16 g ai/ha, 0 to 100 scale): 0
Kochia plant response rating (0-100) (kochia (Bassia scoparia) [19]; [29]): 0
Pigweed, Palmer plant response rating ([20]; 16 g ai/ha, 0 to 100 scale): 40
Pigweed, Palmer plant response rating (0-100) [20, 29]: 90
Barnyardgrass plant response rating ([21]; 16 g ai/ha, 0 to 100 scale): 0
Barnyardgrass plant response rating (0-100) [21, 29]: 90
Wheat plant response rating ([22]; 16 g ai/ha, 0 to 100 scale): 0
Wheat plant response rating (0-100) [22, 29]: 40
Foxtail, Green plant response rating ([23]; 16 g ai/ha, 0 to 100 scale): 0
Foxtail, Green plant response rating (0-100) [23, 29]: 90
Ryegrass, Italian plant response rating ([24]; 16 g ai/ha, 0 to 100 scale): 0
Ryegrass, Italian plant response rating (0-100) [24, 29]: 80
Ragweed plant response rating ([25]; 16 g ai/ha, 0 to 100 scale): 0
Ragweed plant response rating (0-100) [25, 29]: 0
Corn plant response rating (corn (Zea mays) [26]; 16 g ai/ha, 0 to 100 scale): 0
Corn plant response rating (0-100) (corn (Zea mays) [26]; [29]): 30
